ChEMBL document CHEMBL1129611, “Vesamicol receptor mapping of brain cholinergic neurons with radioiodine-labeled positional isomers of benzovesamicol” (J Med Chem, 1996)

Experiments:
[1] = (§1) Tissue distribution of [125I]- labelled compound in mice blood in 4 hours; type: functional, tissue-based
[2] = Tissue distribution of [125I]- labelled compound in mice blood in 0.5 hours; type: functional, tissue-based
[3] = Tissue distribution of [125I]- labelled compound in mice striatum in 0.5 hours; type: functional, tissue-based
[4] = Tissue distribution of [125I]- labelled compound in mice ventricles in 4 hours; type: functional
[5] = Tissue distribution of [125I]- labelled compound in mice cerebellum in 4 hours; type: functional, tissue-based
[6] = Tissue distribution of [125I]- labelled compound in mice atria in 4 hours; type: functional
[7] = Tissue distribution of [125I]- labelled compound in mice cortex in 0.5 hours; type: functional, tissue-based
[8] = Tissue distribution of [125I]- labelled compound in mice striatum in 4 hours; type: functional, tissue-based
[9] = Tissue distribution of [125I]- labelled compound in mice cortex in 4 hours; type: functional, tissue-based
[10] = Tissue distribution of [125I]- labelled compound in mice ventricles in 0.5 hr; type: functional
[11] = Tissue distribution of [125I]- labelled compound in mice cerebellum in 0.5 hr; type: functional, tissue-based
[12] = Tissue distribution of [125I]- labelled compound in mice latria in 0.5 hr; type: functional
[13] = Tissue distribution of [125I]- labelled compound in mice liver in 4 hours; type: functional, tissue-based
[14] = Tissue distribution of [125I]- labelled compound in mice lung in 4 hours; type: functional, tissue-based
[15] = Tissue distribution of [125I]- labelled compound in mice liver in 0.5 hr; type: functional, tissue-based
[16] = Tissue distribution of [125I]- labelled compound in mice […] in 0.5 hours; type: functional
[17] = Tissue distribution of [125I]- labelled compound in mice hippocampus in 4 hours; type: functional, tissue-based
[18] = Tissue distribution of [125I]- labelled compound in mice hippocampus in 0.5 hours; type: functional, tissue-based
[19] = Tissue distribution of [125I]- labelled compound in mice […] in 4 hours; type: functional
[20] = Tissue distribution of [125I]- labelled compound in mice lung in 0.5 hr; type: functional, tissue-based
[21] = Tissue distribution of [125I]- labelled compound in mice atria in 24 hours; type: functional
[22] = Tissue distribution of [125I]- labelled compound in mice striatum in 24 hours; type: functional, tissue-based
[23] = Tissue distribution of [125I]- labelled compound in mice […] in 24 hours; type: functional
[24] = Tissue distribution of [125I]- labelled compound in mice blood in 24 hours; type: functional, tissue-based
[25] = Tissue distribution of [125I]- labelled compound in mice hippocampus in 24 hours; type: functional, tissue-based
[26] = Tissue distribution of [125I]- labelled compound in mice lung in 24 hours; type: functional, tissue-based
[27] = Tissue distribution of [125I]- labelled compound in mice cerebellum in 24 hours; type: functional, tissue-based
[28] = Tissue distribution of [125I]- labelled compound in mice liver in 24 hours; type: functional, tissue-based
[29] = Tissue distribution of [125I]- labelled compound in mice ventricle in 24 hours; type: functional
[30] = Tissue distribution of [125I]- labelled compound in mice cortex in 24 hours; type: functional, tissue-based
Mus musculus = organism: Mus musculus; test: as §1; type: ADME, organism-based; conditions: in vivo
[31] = Tissue distribution of [125I]- labelled compound in mice atria in 0.5 hr; type: functional

SMILES | Dose/g [1] | Dose/g [2] | Dose/g [3] | Dose/g [4] | Dose/g [5] | Dose/g [6] | Dose/g [7] | Dose/g [8] | Dose/g [9] | Dose/g [10] | Dose/g [11] | Dose/g [12] | Dose/g [13] | Dose/g [14] | Dose/g [15] | Dose/g [16] | Dose/g [17] | Dose/g [18] | Dose/g [19] | Dose/g [20] | further results
O[C@@H]1Cc2c(I)cccc2C[C@H]1N1CCC(c2ccccc2)CC1 | 0.19% | 1% | 1.64% | 0.23% | 0.08% | 0.34% | 1.53% | 0.12% | 0.1% | 1.25% | 1.22% | 1.64% | – | – | – | – | – | – | – | – | –
O[C@@H]1Cc2ccccc2C[C@H]1N1CCC(c2ccc(I)cc2)CC1 | 0.66% | 1.85% | 2.68% | 1.88% | 0.28% | 1.35% | 3.01% | 0.33% | 0.32% | 2.9% | 2.33% | 3.03% | 9.12% | 2.95% | 15.4% | 2.73% | 0.31% | 2.91% | 0.28% | 8.86% | –
O[C@@H]1Cc2cccc(I)c2C[C@H]1N1CCC(c2ccccc2)CC1 | 0.53% | 0.82% | 3.81% | 0.31% | 0.21% | 1.43% | 2.29% | 3.3% | 1.17% | 1.27% | 1.28% | 1.73% | 5.92% | 1.11% | 11% | 1.69% | 1.06% | 2.09% | 0.61% | 7.57% | Dose/g [21]: 0.82%; Dose/g [22]: 2.2%; Dose/g [23]: 0.42%; Dose/g [24]: 0.04%; Dose/g [25]: 0.71%; Dose/g [26]: 0.09%; Dose/g [27]: 0.05%; Dose/g [28]: 0.89%; Dose/g [29]: 0.06%; Dose/g [30]: 0.88%
O[C@@H]1Cc2cc(I)ccc2C[C@H]1N1CCC(c2ccccc2)CC1 | 0.47% | 1.13% | 2.34% | 1.77% | 1.23% | 2.45% | 2.32% | 1.96% | 1.62% | 3.29% | 2.06% | – | 12.7% | 5.86% | 19.3% | 2.16% | 1.27% | 1.99% | 1.42% | 13.1% | Dose/g [21]: 0.77%; Dose/g [22]: 2.32%; Dose/g (Mus musculus): 0.47%; Dose/g [31]: 4.37%; Dose/g [23]: 1.35%; Dose/g [24]: 0.09%; Dose/g [25]: 1.48%; Dose/g [26]: 1.74%; Dose/g [27]: 1.06%; Dose/g [28]: 6.48%; Dose/g [29]: 0.27%; Dose/g [30]: 1.74%
O[C@@H]1Cc2ccc(I)cc2C[C@H]1N1CCC(c2ccccc2)CC1 | 0.51% | 1.06% | 3.9% | 0.53% | 0.29% | 0.97% | 2.99% | 3.07% | 1.28% | 1.34% | 2.05% | 2.09% | 6.33% | 0.89% | 18% | 2.51% | 1.03% | 2.73% | 0.68% | 3.39% | Dose/g [21]: 0.1%; Dose/g [22]: 0.76%; Dose/g [23]: 0.1%; Dose/g [24]: 0.05%; Dose/g [25]: 0.16%; Dose/g [26]: 0.1%; Dose/g [27]: 0.05%; Dose/g [28]: 0.88%; Dose/g [29]: 0.1%; Dose/g [30]: 0.22%
